Reference: ChEMBL document CHEMBL1201862, “PubChem BioAssay data set” (2004)
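The compound was tested at five concentrations on cells cultured in 96-well plates, with a 48-hour exposure period. The concentration for 50% growth inhibition is given as GI50.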 The source made the active and inactive calls. Rule as the data show it: active = GI50 up to about 1.1 µM and inactive = higher.

Key:
Assay in all cases: NCI-60 cell line screen, 48 h
[1] = tested on: MDA-MB-435
[2] = tested on: COLO 205
[3] = tested on: SR
[4] = tested on: M14
[5] = tested on: NCI/ADR-RES
[6] = tested on: UACC-257
[7] = tested on: SNB-75
[8] = tested on: OVCAR-8
[9] = tested on: HCT-116
[10] = tested on: SF-539
[11] = tested on: SNB-19
[12] = tested on: HL-60
[13] = tested on: IGROV-1
[14] = tested on: EKVX
[15] = tested on: SN12C
[16] = tested on: K562
[17] = tested on: MDA-N
[18] = tested on: PC-3
[19] = tested on: ACHN
[20] = tested on: U-251
[21] = tested on: HOP-62
[22] = tested on: SF-268
[23] = tested on: SK-MEL-5
[24] = tested on: SF-295
[25] = tested on: RPMI-8226
[26] = tested on: 786-0
[27] = tested on: UO-31
[28] = tested on: HCT-15
[29] = tested on: OVCAR-5
[30] = tested on: HCC 2998
[31] = tested on: MOLT-4
[32] = tested on: SK-MEL-28
[33] = tested on: T47D
[34] = tested on: TK-10
[35] = tested on: KM12
[36] = tested on: MDA-MB-231
[37] = tested on: SK-OV-3
[38] = tested on: NCI-H522
[39] = tested on: MCF7
[40] = tested on: SW-620
[41] = tested on: DU-145
[42] = tested on: A549
[43] = tested on: OVCAR-4
[44] = tested on: UACC-62
[45] = tested on: OVCAR-3
[46] = tested on: NCI-H23
[47] = tested on: Malme-3M
[48] = tested on: LOX IMVI
[49] = tested on: HOP-92
[50] = tested on: RXF 393
[51] = tested on: CCRF-CEM
[52] = tested on: NCI-H226
[53] = tested on: A498
[54] = tested on: SK-MEL-2
[55] = tested on: CAKI-1
[56] = tested on: HT-29
[57] = tested on: NCI-H460

Q: Which GI50 [1] does the source give for COc1ccc2c3c([nH]c2c1)-c1nc2ccccc2c(=O)n1CC3 here?
A: > 25 µM (inactive)

Q: What about the GI50 [2] of the same compound?
A: > 25 µM (inactive)

Q: And the GI50 [3]?
A: > 25 µM (inactive)

Q: And the GI50 [4]?
A: > 25 µM (inactive)

Q: What about the GI50 [5] of the same compound?
A: > 25 µM (inactive)

Q: And the GI50 [6]?
A: > 25 µM (inactive)

Q: What about the GI50 [7] of the same compound?
A: 13.1 µM (inactive)

Q: What about the GI50 [8] of the same compound?
A: > 25 µM (inactive)

Q: And the GI50 [9]?
A: > 25 µM (inactive)

Q: What about the GI50 [10] of the same compound?
A: 14.9 µM (inactive)

Q: And the GI50 [11]?
A: > 25 µM (inactive)

Q: And the GI50 [12]?
A: > 25 µM (inactive)

Q: What about the GI50 [13] of the same compound?
A: > 25 µM (inactive)

Q: And the GI50 [14]?
A: > 25 µM (inactive)

Q: And the GI50 [15]?
A: > 25 µM (inactive)

Q: And the GI50 [16]?
A: > 25 µM (inactive)

Q: And the GI50 [17]?
A: > 25 µM (inactive)

Q: And the GI50 [18]?
A: > 25 µM (inactive)

Q: And the GI50 [19]?
A: > 25 µM (inactive)

Q: And the GI50 [20]?
A: > 25 µM (inactive)

Q: What about the GI50 [21] of the same compound?
A: > 25 µM (inactive)

Q: And the GI50 [22]?
A: 21.5 µM (inactive)

Q: And the GI50 [23]?
A: > 25 µM (inactive)

Q: What about the GI50 [24] of the same compound?
A: > 25 µM (inactive)

Q: What about the GI50 [25] of the same compound?
A: > 25 µM (inactive)

Q: What about the GI50 [26] of the same compound?
A: 0.317 µM (active)

Q: What about the GI50 [27] of the same compound?
A: > 25 µM (inactive)

Q: And the GI50 [28]?
A: > 25 µM

Q: And the GI50 [29]?
A: > 25 µM (inactive)

Q: What about the GI50 [30] of the same compound?
A: > 25 µM (inactive)

Q: What about the GI50 [31] of the same compound?
A: > 25 µM (inactive)

Q: What about the GI50 [32] of the same compound?
A: > 25 µM (inactive)

Q: What about the GI50 [33] of the same compound?
A: > 25 µM (inactive)

Q: And the GI50 [34]?
A: > 25 µM (inactive)

Q: What about the GI50 [35] of the same compound?
A: > 25 µM (inactive)

Q: And the GI50 [36]?
A: > 25 µM (inactive)

Q: And the GI50 [37]?
A: > 25 µM (inactive)

Q: And the GI50 [38]?
A: > 25 µM (inactive)

Q: And the GI50 [39]?
A: > 25 µM (inactive)

Q: And the GI50 [40]?
A: > 25 µM (inactive)

Q: How did the GI50 [1] turn out when O=NNc1cnc(O)nc1O was run?
A: > 100 µM (inactive)

Q: And the GI50 [2]?
A: > 100 µM (inactive)

Q: What about the GI50 [41] of the same compound?
A: > 100 µM (inactive)

Q: What about the GI50 [42] of the same compound?
A: > 100 µM (inactive)

Q: And the GI50 [43]?
A: > 100 µM (inactive)

Q: And the GI50 [4]?
A: > 100 µM (inactive)

Q: And the GI50 [5]?
A: > 100 µM (inactive)

Q: And the GI50 [44]?
A: 71.3 µM (inactive)

Q: And the GI50 [45]?
A: 74.8 µM (inactive)

Q: What about the GI50 [6] of the same compound?
A: > 100 µM (inactive)

Q: What about the GI50 [46] of the same compound?
A: > 100 µM (inactive)

Q: And the GI50 [47]?
A: > 100 µM (inactive)

Q: And the GI50 [7]?
A: 8.75 µM (inactive)

Q: What about the GI50 [8] of the same compound?
A: > 100 µM (inactive)

Q: And the GI50 [9]?
A: > 100 µM (inactive)

Q: What about the GI50 [10] of the same compound?
A: > 100 µM (inactive)

Q: What about the GI50 [11] of the same compound?
A: > 100 µM (inactive)

Q: What about the GI50 [12] of the same compound?
A: 49.3 µM (inactive)

Q: What about the GI50 [13] of the same compound?
A: 52.4 µM (inactive)

Q: What about the GI50 [14] of the same compound?
A: > 100 µM (inactive)

Q: And the GI50 [48]?
A: > 100 µM (inactive)

Q: What about the GI50 [15] of the same compound?
A: > 100 µM (inactive)

Q: What about the GI50 [16] of the same compound?
A: > 100 µM (inactive)

Q: What about the GI50 [17] of the same compound?
A: > 100 µM (inactive)

Q: What about the GI50 [18] of the same compound?
A: > 100 µM (inactive)

Q: And the GI50 [19]?
A: > 100 µM (inactive)

Q: And the GI50 [20]?
A: > 100 µM (inactive)

Q: And the GI50 [21]?
A: > 100 µM (inactive)

Q: And the GI50 [49]?
A: > 100 µM (inactive)

Q: What about the GI50 [23] of the same compound?
A: > 100 µM (inactive)

Q: What about the GI50 [24] of the same compound?
A: > 100 µM (inactive)

Q: What about the GI50 [50] of the same compound?
A: > 100 µM (inactive)

Q: What about the GI50 [25] of the same compound?
A: > 100 µM (inactive)

Q: And the GI50 [26]?
A: > 100 µM (inactive)

Q: And the GI50 [27]?
A: > 100 µM (inactive)

Q: What about the GI50 [28] of the same compound?
A: > 100 µM

Q: And the GI50 [30]?
A: > 100 µM (inactive)

Q: And the GI50 [51]?
A: > 100 µM (inactive)

Q: And the GI50 [31]?
A: > 100 µM (inactive)

Q: What about the GI50 [52] of the same compound?
A: > 100 µM (inactive)

Q: And the GI50 [32]?
A: > 100 µM (inactive)

Q: What about the GI50 [33] of the same compound?
A: > 100 µM (inactive)

Q: And the GI50 [53]?
A: 92.7 µM (inactive)

Q: And the GI50 [34]?
A: > 100 µM (inactive)

Q: What about the GI50 [54] of the same compound?
A: > 100 µM (inactive)

Q: And the GI50 [35]?
A: > 100 µM (inactive)

Q: And the GI50 [36]?
A: > 100 µM (inactive)

Q: And the GI50 [37]?
A: > 100 µM (inactive)

Q: And the GI50 [55]?
A: > 100 µM (inactive)

Q: And the GI50 [38]?
A: > 100 µM (inactive)

Q: And the GI50 [39]?
A: > 100 µM (inactive)

Q: What about the GI50 [40] of the same compound?
A: > 100 µM (inactive)

Q: COc1ccc(-c2oc3ccccc3c(=O)c2O)cc1OC [3-HYDROXY-3',4'-DIMETHOXYFLAVONE] was tested. Which GI50 [1] did it give?
A: > 100 µM (inactive)

Q: And the GI50 [2]?
A: > 100 µM (inactive)

Q: What about the GI50 [41] of the same compound?
A: 7.16 µM (inactive)

Q: And the GI50 [42]?
A: > 100 µM (inactive)

Q: What about the GI50 [4] of the same compound?
A: > 100 µM (inactive)

Q: What about the GI50 [5] of the same compound?
A: 3.77 µM (inactive)

Q: What about the GI50 [44] of the same compound?
A: 5.22 µM (inactive)

Q: And the GI50 [45]?
A: 47.5 µM (inactive)

Q: What about the GI50 [6] of the same compound?
A: > 100 µM (inactive)

Q: What about the GI50 [47] of the same compound?
A: > 100 µM (inactive)

Q: And the GI50 [9]?
A: > 100 µM (inactive)

Q: What about the GI50 [11] of the same compound?
A: 29 µM (inactive)

Q: What about the GI50 [13] of the same compound?
A: 14.3 µM (inactive)

Q: What about the GI50 [14] of the same compound?
A: > 100 µM (inactive)

Q: What about the GI50 [48] of the same compound?
A: 9.95 µM (inactive)

Q: And the GI50 [16]?
A: > 100 µM (inactive)

Q: And the GI50 [17]?
A: > 100 µM (inactive)

Q: And the GI50 [18]?
A: > 100 µM (inactive)

Q: What about the GI50 [19] of the same compound?
A: 10.6 µM (inactive)

Q: And the GI50 [20]?
A: 4.92 µM (inactive)

Q: What about the GI50 [21] of the same compound?
A: 11.2 µM (inactive)

Q: What about the GI50 [56] of the same compound?
A: > 100 µM (inactive)

Q: And the GI50 [22]?
A: 7.5 µM (inactive)

Q: What about the GI50 [23] of the same compound?
A: > 100 µM (inactive)

Q: And the GI50 [24]?
A: 17.4 µM (inactive)

Q: And the GI50 [27]?
A: > 100 µM (inactive)

Q: What about the GI50 [28] of the same compound?
A: > 100 µM

Q: And the GI50 [29]?
A: > 100 µM (inactive)

Q: And the GI50 [51]?
A: 3.81 µM (inactive)

Q: What about the GI50 [32] of the same compound?
A: 25.3 µM (inactive)

Q: What about the GI50 [33] of the same compound?
A: 99.5 µM (inactive)

Q: What about the GI50 [53] of the same compound?
A: 6.92 µM (inactive)

Q: And the GI50 [34]?
A: 12.3 µM (inactive)

Q: And the GI50 [36]?
A: > 100 µM (inactive)

Q: What about the GI50 [37] of the same compound?
A: 4.81 µM (inactive)

Q: What about the GI50 [55] of the same compound?
A: 55.2 µM (inactive)

Q: What about the GI50 [38] of the same compound?
A: 4.63 µM (inactive)

Q: And the GI50 [57]?
A: 4.69 µM (inactive)

Q: What about the GI50 [39] of the same compound?
A: > 100 µM (inactive)

Q: What about the GI50 [40] of the same compound?
A: > 100 µM (inactive)
